# Where “and” joins values, the source holds several entries; their conditions need not be identical. Equal values may be shown once. Inconclusive results and toxic doses are left out.
# Test system: CD2F1 mice, L1210 leukemia ip, survival T/C
# Assay: NCI In Vivo Anticancer Drug Screen. Data for tumor model L1210 Leukemia (intraperitoneal) in CD2F1 (CDF1) mice
# Settings: higher = longer survival
# Outline: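 Read-out first: treated-group measurement over vehicle-control measurement, expressed as a ratio. Animals bore a transplanted tumor line and were dosed with compound or vehicle.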
# [1] = endpoint: mean survival time, dose: 100.0 mg/kg/injection, schedule: Q01DX001 (ip), vehicle: saline with Tween-80
# [2] = endpoint: mean survival time, dose: 200.0 mg/kg/injection, schedule: Q01DX001 (ip), vehicle: saline with Tween-80
# [3] = endpoint: mean survival time, dose: 400.0 mg/kg/injection, schedule: Q01DX001 (ip), vehicle: saline with Tween-80
# [4] = endpoint: mean survival time, dose: 100.0 mg/kg/injection, schedule: Q01DX009 (ip), vehicle: saline with Tween-80
# [5] = endpoint: mean survival time, dose: 100.0 mg/kg/injection, schedule: Q04DX003 (ip), vehicle: saline with Tween-80
# [6] = endpoint: mean survival time, dose: 200.0 mg/kg/injection, schedule: Q01DX009 (ip), vehicle: saline with Tween-80
# [7] = endpoint: mean survival time, dose: 200.0 mg/kg/injection, schedule: Q04DX003 (ip), vehicle: saline with Tween-80
# [8] = endpoint: mean survival time, dose: 400.0 mg/kg/injection, schedule: Q01DX009 (ip), vehicle: saline with Tween-80
# [9] = endpoint: mean survival time, dose: 400.0 mg/kg/injection, schedule: Q04DX003 (ip), vehicle: saline with Tween-80
# [10] = endpoint: mean survival time, dose: 25.0 mg/kg/injection, schedule: Q04DX003 (ip), vehicle: saline with Tween-80
structure (smiles),measurement,setting,value
O=C(/C=C\c1ccc([N+]([O-])=Nc2ccc(/C=C/C(=O)c3ccccc3)cc2)cc1)c1ccccc1,T/C,[1],102 % of control
same,T/C,[2],86 % of control
same,T/C,[3],98 % of control
O=C1NC2(c3ccccc3)NC(=O)NC2(c2ccccc2)N1 (centres undefined),T/C,[4],98 % of control
same,T/C,[5],101 % of control
same,T/C,[6],98 % of control
same,T/C,[7],97 % of control
same,T/C,[8],104 % of control
same,T/C,[9],95 % of control
CC(C)(O)C1OCC(C2CCC3(C)C4=CCC5C(C)(C)C(O)CCC5(C)C4CCC23C)CC1O (centres undefined),T/C,"endpoint: mean survival time, dose: 2.5 mg/kg/injection, schedule: Q01DX009 (ip), vehicle: Klucel (hydroxypropylcellulose) (HPC)",94 % of control
same,T/C,"endpoint: mean survival time, dose: 5.0 mg/kg/injection, schedule: Q01DX009 (ip), vehicle: Klucel (hydroxypropylcellulose) (HPC)",103 % of control
same,T/C,"endpoint: mean survival time, dose: 10.0 mg/kg/injection, schedule: Q01DX009 (ip), vehicle: Klucel (hydroxypropylcellulose) (HPC)",88 % of control
COC(=O)c1ccccc1N1C(=O)C=CC1=O,T/C,"endpoint: mean survival time, dose: 12.5 mg/kg/injection, schedule: Q04DX003 (ip), vehicle: saline with Tween-80",98 % of control
same,T/C,[10],89 % of control
CCOc1c(Cl)cc(Cl)cc1C(c1ccccc1S(=O)(=O)O)c1cc(Cl)cc(Cl)c1OCC,T/C,"endpoint: mean survival time, dose: 6.25 mg/kg/injection, schedule: Q01DX009 (ip), vehicle: saline sonified",97 % of control
same,T/C,"endpoint: mean survival time, dose: 6.25 mg/kg/injection, schedule: Q04DX003 (ip), vehicle: saline sonified",97 % of control
same,T/C,"endpoint: mean survival time, dose: 12.5 mg/kg/injection, schedule: Q01DX009 (ip), vehicle: saline sonified",96 % of control
same,T/C,"endpoint: mean survival time, dose: 12.5 mg/kg/injection, schedule: Q04DX003 (ip), vehicle: saline sonified",103 % of control
same,T/C,"endpoint: mean survival time, dose: 25.0 mg/kg/injection, schedule: Q01DX009 (ip), vehicle: saline sonified",96 % of control
same,T/C,"endpoint: mean survival time, dose: 25.0 mg/kg/injection, schedule: Q04DX003 (ip), vehicle: saline sonified",95 % of control
CCCCC(O)C(C)C (centres undefined),T/C,"endpoint: mean survival time, dose: 50.0 mg/kg/injection, schedule: Q01DX009 (ip), vehicle: saline with Tween-80",100 % of control
same,T/C,[4],103 % of control
same,T/C,[6],106 % of control
CCOC(=O)c1c(F)c(F)c(Oc2c(F)c(F)c(F)c(F)c2F)c(F)c1F,T/C,[5],86 % of control
same,T/C,[7],96 % of control
same,T/C,[9],92 % of control
CO[C@@]12[C@@H]3N[C@@H]3CN1C1=C(C(=O)C(N3CCOCC3)=C(C)C1=O)[C@@H]2COC(N)=O,T/C,"endpoint: mean survival time, dose: 1.5 mg/kg/injection, schedule: Q01DX001 (ip), vehicle: distilled water + Tween-80",118 % of control
same,T/C,"endpoint: mean survival time, dose: 3.0 mg/kg/injection, schedule: Q01DX001 (ip), vehicle: distilled water + Tween-80",123 % of control
same,T/C,"endpoint: mean survival time, dose: 12.0 mg/kg/injection, schedule: Q01DX001 (ip), vehicle: distilled water + Tween-80",115 % of control
O=C(Nc1cccc(Cl)c1)c1ccccc1,T/C,[4],103 % of control
same,T/C,[5],91 % of control
same,T/C,[6],89 % of control
same,T/C,[7],110 % of control
same,T/C,[8],98 % of control
same,T/C,[9],94 % of control
OCc1ccc(Cl)cc1,T/C,[5],96 % of control
same,T/C,[7],97 % of control
same,T/C,[9],100 % of control
[I][Ni][I].c1ccc([PH+](c2ccccc2)c2ccccc2)cc1.c1ccc([PH+](c2ccccc2)c2ccccc2)cc1,T/C,"endpoint: mean survival time, dose: 100.0 mg/kg/injection, schedule: Q04DX002 (ip), vehicle: saline with Tween-80",87 % of control
same,T/C,"endpoint: mean survival time, dose: 200.0 mg/kg/injection, schedule: Q04DX002 (ip), vehicle: saline with Tween-80",91 % of control
same,T/C,"endpoint: mean survival time, dose: 400.0 mg/kg/injection, schedule: Q04DX002 (ip), vehicle: saline with Tween-80",87 % of control
COc1cc(Cc2nccc3ccccc23)cc([N+](=O)[O-])c1OC,T/C,[1],97 % of control
same,T/C,[2],92 % of control
same,T/C,[3],89 % of control
CCCN(CCC)CCC(=O)OCC,T/C,[4],97 % of control
same,T/C,[5],97 % of control
same,T/C,[6],97 % of control
same,T/C,[7],114 % of control
same,T/C,[8],100 % of control
same,T/C,[9],100 % of control
COc1cc(/C=N/n2c(-c3ccccc3)nc3ccccc3c2=O)cc(Br)c1O,T/C,"endpoint: mean survival time, dose: 50.0 mg/kg/injection, schedule: Q01DX009 (ip), vehicle: Klucel (hydroxypropylcellulose) (HPC)",91 % of control
same,T/C,"endpoint: mean survival time, dose: 100.0 mg/kg/injection, schedule: Q01DX009 (ip), vehicle: Klucel (hydroxypropylcellulose) (HPC)",105 % of control
same,T/C,"endpoint: mean survival time, dose: 200.0 mg/kg/injection, schedule: Q01DX009 (ip), vehicle: Klucel (hydroxypropylcellulose) (HPC)",102 % of control
C(=C\c1ccccn1)/c1ccccc1,T/C,[1],100 % of control
same,T/C,[4],94 % of control
same,T/C,[2],89 % of control
same,T/C,[6],101 % of control
same,T/C,[3],92 % of control
O=C1CC2C=CCC12 (centres undefined),T/C,[4],98 % of control
same,T/C,[6],98 % of control
same,T/C,[8],100 % of control
CCOC(=O)c1cn(C)c2c1C(O)=C(C(=O)OC)CC(=O)N2,T/C,"endpoint: median survival time, dose: 25.0 mg/kg/injection, schedule: Q01DX009 (ip), vehicle: saline with Tween-80",90 % of control
same,T/C,"endpoint: median survival time, dose: 50.0 mg/kg/injection, schedule: Q01DX009 (ip), vehicle: saline with Tween-80",98 % of control
same,T/C,"endpoint: median survival time, dose: 100.0 mg/kg/injection, schedule: Q01DX009 (ip), vehicle: saline with Tween-80",92 % of control
same,T/C,"endpoint: median survival time, dose: 200.0 mg/kg/injection, schedule: Q01DX009 (ip), vehicle: saline with Tween-80",94 % of control
same,T/C,"endpoint: median survival time, dose: 400.0 mg/kg/injection, schedule: Q01DX009 (ip), vehicle: saline with Tween-80",90 % of control
CCCCOC(=S)SCCSC(=S)OCCCC,T/C,[4],101 % of control
same,T/C,[6],98 % of control
O=N[O-].O=N[O-].[NH-]CC[NH-].[Pt+2],T/C,[10],101 % of control
same,T/C,"endpoint: mean survival time, dose: 50.0 mg/kg/injection, schedule: Q04DX003 (ip), vehicle: saline with Tween-80",98 % of control
same,T/C,[5],93 % of control
CC(C)(C)c1ccc(OCC(=O)O)cc1,T/C,"endpoint: mean survival time, dose: 100.0 mg/kg/injection, schedule: Q04DX003 (ip), vehicle: other",100 % of control
same,T/C,"endpoint: mean survival time, dose: 200.0 mg/kg/injection, schedule: Q04DX003 (ip), vehicle: other",101 % of control
O=C(O)C1CCC(CC2CCCCC2)CC1 (centres undefined),T/C,[5],93 % of control
same,T/C,[7],94 % of control
same,T/C,[9],104 % of control
CN1C(=O)C2(Cc3cn(C45CC67SSC(CO)(C(=O)N6C4Nc4ccccc45)N(C)C7=O)c4ccccc34)SSC1(CO)C(=O)N2C (centres undefined),T/C,"endpoint: mean survival time, dose: 0.31 mg/kg/injection, schedule: Q01DX009 (ip), vehicle: Klucel (hydroxypropylcellulose) (HPC)",93 % of control
same,T/C,"endpoint: mean survival time, dose: 0.62 mg/kg/injection, schedule: Q01DX009 (ip), vehicle: Klucel (hydroxypropylcellulose) (HPC)",100 % of control
same,T/C,"endpoint: mean survival time, dose: 1.25 mg/kg/injection, schedule: Q01DX009 (ip), vehicle: Klucel (hydroxypropylcellulose) (HPC)",100 % of control
CC1CC[N-]CC1.CC1CC[N-]CC1.CC1CC[N-]CC1.CC1CC[N-]CC1.CS(C)=O.CS(C)=O.[Cl-].[Cl-].[Cl-].[Cl-].[Pt+4].[Rh+3],T/C,"endpoint: mean survival time, dose: 0.2 mg/kg/injection, schedule: Q01DX009 (ip), vehicle: water",97 % of control
same,T/C,"endpoint: mean survival time, dose: 0.4 mg/kg/injection, schedule: Q01DX009 (ip), vehicle: water",92 % of control
same,T/C,"endpoint: mean survival time, dose: 0.78 mg/kg/injection, schedule: Q04DX003 (ip), vehicle: Klucel (hydroxypropylcellulose) (HPC)",102 % of control
same,T/C,"endpoint: mean survival time, dose: 0.8 mg/kg/injection, schedule: Q01DX009 (ip), vehicle: water",93 % of control
same,T/C,"endpoint: mean survival time, dose: 1.5 mg/kg/injection, schedule: Q01DX009 (ip), vehicle: water",97 % of control
same,T/C,"endpoint: mean survival time, dose: 1.56 mg/kg/injection, schedule: Q04DX003 (ip), vehicle: Klucel (hydroxypropylcellulose) (HPC)",98 % of control
same,T/C,"endpoint: mean survival time, dose: 3.0 mg/kg/injection, schedule: Q01DX009 (ip), vehicle: water",92 % of control
same,T/C,"endpoint: mean survival time, dose: 3.13 mg/kg/injection, schedule: Q04DX003 (ip), vehicle: Klucel (hydroxypropylcellulose) (HPC)",102 % of control
same,T/C,"endpoint: mean survival time, dose: 6.25 mg/kg/injection, schedule: Q04DX003 (ip), vehicle: water",103 % of control
CCCCNCC(=O)O[C@]1(CC)C(=O)OCc2c1cc1n(c2=O)Cc2cc3ccccc3nc2-1,T/C,"endpoint: median survival time, dose: 7.5 mg/kg/injection, schedule: Q04DX002 (ip), vehicle: saline",109 % of control
same,T/C,"endpoint: median survival time, dose: 7.5 mg/kg/injection, schedule: Q04HX004 (iv), vehicle: dextrose",150 % of control
same,T/C,"endpoint: median survival time, dose: 7.5 mg/kg/injection, schedule: Q04HX004 (iv), vehicle: other",158 % of control
same,T/C,"endpoint: median survival time, dose: 15.0 mg/kg/injection, schedule: Q04DX002 (ip), vehicle: saline",117 % of control and 124 % of control
same,T/C,"endpoint: median survival time, dose: 15.0 mg/kg/injection, schedule: Q04HX004 (iv), vehicle: dextrose",172 % of control
same,T/C,"endpoint: median survival time, dose: 15.0 mg/kg/injection, schedule: Q04HX004 (iv), vehicle: other",186 % of control
same,T/C,"endpoint: median survival time, dose: 30.0 mg/kg/injection, schedule: Q04DX002 (ip), vehicle: saline",158 % of control
same,T/C,"endpoint: median survival time, dose: 30.0 mg/kg/injection, schedule: Q04HX004 (iv), vehicle: dextrose",218 % of control
same,T/C,"endpoint: median survival time, dose: 30.0 mg/kg/injection, schedule: Q04HX004 (iv), vehicle: other",235 % of control
same,T/C,"endpoint: median survival time, dose: 40.0 mg/kg/injection, schedule: Q04HX004 (iv), vehicle: other",247 % of control
same,T/C,"endpoint: median survival time, dose: 60.0 mg/kg/injection, schedule: Q04DX002 (ip), vehicle: saline",195 % of control and 212 % of control
